One test has as its system human PMVECs. In words: Baseline Ca2+ signaling in human PMVECs exposed to acute HR (Calbryte 520). Format: cell-based. The settings on record: ARC 10 μM; 1 h hypoxia + 10 min reoxygenation. How it is done: Exposure of PMVECs to acute HR and Ca^2+ imaging in PMVECs: Primary human and murine pulmonary microvascular endothelial cells (PMVECs; Cell Biologics, Chicago, IL) were cultured on gelatin-coated flasks in endothelial cell medium (Cell Biologics). For acute HR exposure, PMVECs were washed with PBS, and serum-free/glucose-free endothelial cell medium was added. PMVECs were placed in a humidified, sealed hypoxia chamber (Billups-Rothenberg, San Diego, CA), whereupon the chamber was flushed with 95% nitrogen/5% CO2 for 20 minutes and placed in a 37° C. incubator to initiate hypoxia. After 1 hour of hypoxia, the chamber was opened to terminate hypoxia. […]
(§1) Ca^2+ imaging in human and mouse PMVECs was performed using an Andor Dragonfly 505 spinning-disk confocal imaging system with Borealis illumination and an Integrated Laser Engine solid-state laser source (Andor Technology, Belfast, UK), coupled with a Leica Dmi8 inverted microscope (Leica) and 63× objective (NA 1.47)^13 Images were acquired at 30 frames per second using Fusion 2.3 (Oxford Instruments, Belfast, UK) and an electron-multiplying CCD camera (iXon888). Calbryte 520 AM was excited at 488 nm, and emitted fluorescence was captured using a 525/50 bandpass emission filter. […]

Another test concerns TRPV4EC channels. As to the kind of experiment: TRPV4 sparklet activity in human PMVECs exposed to acute HR. Format: cell-based. The settings on record: 1 h hypoxia + 10 min reoxygenation. The arrangement: dose or concentration left out as unconfirmed. How it is done:
TRPV4 sparklets were assessed as increases in fluorescence relative to baseline fluorescence, obtained by averaging 10 quiescent images prior to stimulation. TRPV4 Ca^2+ sparklets were assessed based on previously established methods.^9,11 Average TRPV4 sparklet activity is defined as NPO, where N is the number of TRPV4 channels per site and PO is the open-state probability of the channel. NPO was calculated using the Single Channel Search module of Clampfit. quantal amplitudes derived from all-points histograms (0.3 AF/F0 for Fluo-4-loaded Pas),^12 and the following equation: NPO=(Tlevel1+2Tlevel2+3Tlevel3+4Tlevel4)/Ttotal, where T represents the dwell time at each quantal level and Ttotal is the total recording duration. […]
as §1

With `Cc1ccc2c(c1)C=Cc1cc(C)ccc1C2c1cn(Cc2ccc(C(=O)Nc3nn[nH]n3)o2)c(=O)[nH]c1=S` [ARC, AR-C 118925XX], the “HR-induced increase in baseline endothelial Ca signaling” value in the test with human PMVECs is recorded as “blocked”. In the test on TRPV4EC channels, the “HR-induced increase in TRPV4EC sparklets” value is reported as “blocked”.

These data come from US20260284082A1, “TARGETING THE PANX1-P2Y2R-TRPV4 PATHWAY TO TREAT LUNG ISCHEMIA-REPERFUSION INJURY” (UNIVERSITY OF VIRGINIA PATENT FOUNDATION, priority 2023, published 2026).
